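All cell lines were grown in 96-well plates and treated with compound for 48 hours.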 Activity calls are given as the source filed them. Rule as the data show it: active = GI50 below about 0.43 µM; inactive = the rest.
Tested on: 786-0 renal
Experiment: NCI tumour cell line growth inhibition, 48 h

For `O=P(O)(O)CN1CCNCCN(CP(=O)(O)O)CCN(CP(=O)(O)O)CCNCC1`, the outcome was “inactive”.

Reference: PubChem BioAssay (NCI)
